Results: ChEMBL document CHEMBL1140149, “Discovery of bioavailable 4,4-disubstituted piperidines as potent ligands of the chemokine receptor 5 and inhibitors of the human immunodeficiency virus-1” (J Med Chem, 2008)

test system: not listed separately; experiment: in vivo; settings: rat

`Cc1nc2ccccc2n1[C@H]1C[C@H]2CC[C@@H](C1)N2CCC1(c2cccc(Cl)c2)CCN(C(=O)C(C)(C)C)CC1` gave a clearance of 21 mL/min/kg.

test system: not listed separately; experiment: Bioavailability in rat at 1 mg/kg, po; settings: in vivo

Work on `Cc1nc2ccccc2n1[C@H]1C[C@H]2CC[C@@H](C1)N2CCC1(c2cccc(Cl)c2)CCN(C(=O)C(C)(C)C)CC1` yielded a bioavailability of 26%.

test system: Human immunodeficiency virus 1; experiment: Antiviral activity against HIV1 Ba-L in human HOS cells by MTS assay; format: functional, organism-based; settings: Human immunodeficiency virus 1, Ba-L

Compared with `Cc1nc2ccccc2n1[C@@H]1C[C@H]2CC[C@@H](C1)N2CCC1(c2ccccc2)CCN(C(=O)OC(C)(C)C)CC1`, `Cc1nc2ccccc2n1[C@H]1C[C@H]2CC[C@@H](C1)N2CCC1(c2cccc(Cl)c2)CCN(C(=O)C(C)(C)C)CC1` is 87-fold lower in IC50: 1260 nM for the first, 14.5 nM for the second. The second is the more potent here.

For `Cc1nc2ccccc2n1[C@H]1C[C@H]2CC[C@@H](C1)N2CCC1(c2ccc(Cl)c(Cl)c2)CCN(C(=O)C(C)(C)C)CC1`, the IC50 was 33.9 nM.

test system: Human immunodeficiency virus 1; experiment: Antiviral activity against HIV1 Ba-L in human PBL cells by MTS assay; format: functional, organism-based; settings: Human immunodeficiency virus 1, Ba-L

Work on `Cc1nc2ccccc2n1[C@H]1C[C@H]2CC[C@@H](C1)N2CCC1(c2cccc(Cl)c2)CCN(C(=O)C(C)(C)C)CC1` yielded an IC50 of 1.91 nM.

target: C-C chemokine receptor type 5 (Homo sapiens, UniProt P51681); experiment: Displacement of [125I]MIP-1beta from human CCR5 expressed in CHO cells; format: cell-based; settings: not given
Sequence (P51681 whole entry): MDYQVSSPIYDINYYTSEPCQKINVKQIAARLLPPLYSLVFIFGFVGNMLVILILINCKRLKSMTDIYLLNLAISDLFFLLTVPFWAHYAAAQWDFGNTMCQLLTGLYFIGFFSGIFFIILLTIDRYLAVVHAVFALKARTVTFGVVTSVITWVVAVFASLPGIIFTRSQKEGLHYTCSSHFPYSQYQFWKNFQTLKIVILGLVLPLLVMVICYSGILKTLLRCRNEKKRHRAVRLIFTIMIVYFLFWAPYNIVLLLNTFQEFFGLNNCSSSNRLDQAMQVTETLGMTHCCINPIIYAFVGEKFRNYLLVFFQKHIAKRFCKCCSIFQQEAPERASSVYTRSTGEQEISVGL

Compared with `O=C1CCC(CCCN2CCC(n3c(=O)[nH]c4ccccc43)CC2)(c2ccc(Cl)c(Cl)c2)CN1Cc1ccccc1` (stereo not given), `O=C(c1ccccc1)N1CCCC(CCCN2CCC(n3c(=O)[nH]c4ccccc43)CC2)(c2ccc(Cl)c(Cl)c2)C1` (stereo not given) is 13-fold lower in IC50: 20000 nM for the first, 1580 nM for the second. The second is the more potent here.

Going from `Cc1nc2ccccc2n1[C@H]1C[C@H]2CC[C@@H](C1)N2CCCC1(c2ccccc2)CCN(C(=O)OC(C)(C)C)CC1` to `Cc1nc2ccccc2n1[C@@H]1C[C@H]2CC[C@@H](C1)N2CCC1(c2ccccc2)CCN(C(=O)OC(C)(C)C)CC1`, the IC50 falls from over 31600 nM to 63.1 nM. The second is the more potent here.

Compared with `Cc1nc2ccccc2n1[C@@H]1C[C@H]2CC[C@@H](C1)N2CCCC1(c2ccc(Cl)c(Cl)c2)CCN(C(=O)OC(C)(C)C)CC1`, `Cc1nc2ccccc2n1[C@H]1C[C@H]2CC[C@@H](C1)N2CCC1(c2ccc(Cl)c(Cl)c2)CCN(C(=O)OC(C)(C)C)CC1` is 680-fold lower in IC50: 20000 nM for the first, 29.5 nM for the second.

Compared with `Cc1nc2ccccc2n1[C@@H]1C[C@H]2CC[C@@H](C1)N2CCCC1(c2ccccc2)CCN(C(=O)c2ccco2)CC1`, `Cc1nc2ccccc2n1[C@@H]1C[C@H]2CC[C@@H](C1)N2CCCC1(c2ccccc2)CCN(C(=O)c2ccccc2)CC1` is 4-fold lower in IC50: 5010 nM for the first, 1260 nM for the second. The second is the more potent here.

Compared with `Cc1nc2ccccc2n1[C@@H]1C[C@H]2CC[C@@H](C1)N2CCC1(c2ccccc2)CCN(C(=O)OCc2ccccc2)CC1`, `Cc1nc2ccccc2n1C1CC2COCC(C1)N2CCC1(c2ccccc2)CCN(C(=O)c2ccccc2)CC1` (stereo not given) is higher in IC50: 63.1 nM for the first, over 3160 nM for the second.

First: Cc1nc2ccccc2n1[C@H]1C[C@H]2CC[C@@H](C1)N2CCC1(c2ccc(Cl)c(Cl)c2)CCN(C(=O)c2ccccc2)CC1
Second: Cc1nc2ccccc2n1[C@H]1C[C@H]2CC[C@@H](C1)N2CCC1(c2cccc(Cl)c2)CCN(C(=O)c2ccccc2)CC1
The IC50 of the first is 3-fold higher: 15.8 nM for the first, 5.25 nM for the second.

Compared with `Cc1nc2ccccc2n1[C@H]1C[C@H]2CC[C@@H](C1)N2CCC1(c2ccc(Cl)c(Cl)c2)CCN(C(=O)C(C)(C)C)CC1`, `Cc1nc2ccccc2n1[C@H]1C[C@H]2CC[C@@H](C1)N2CCC1(c2ccc(Cl)c(Cl)c2)CCN(C(=O)OC(C)(C)C)C1` (stereo not given in full) is 110-fold higher in IC50: 7.24 nM for the first, 776 nM for the second.

Going from `Cc1nc2ccccc2n1[C@H]1C[C@H]2CC[C@@H](C1)N2CCC1(c2cccc(Cl)c2)CCN(C(=O)OC(C)(C)C)CC1` to `Cc1nc2ccccc2n1[C@H]1CC2CC[C@H](C1)N2CCC1(c2ccccc2)CCN(C(=O)C2CCCC2)CC1` (single isomer, unassigned), the IC50 rises from 5.01 nM to 20 nM (4-fold).

First: CN1CN(c2ccccc2)C2(CCN(CCCC3(c4ccc(Cl)c(Cl)c4)CCN(C(=O)c4ccco4)C3)CC2)C1=O (stereo not given)
Second: O=C(c1ccco1)N1CCC(CCCN2CCC3(CC2)C(=O)NCN3c2ccccc2)(c2ccc(Cl)c(Cl)c2)C1 (stereo not given)
The IC50 of the first is 50-fold higher: 7080 nM for the first, 141 nM for the second.

Going from `O=C1NCN(c2ccccc2)C12CCN(CCOC1(c3ccc(Cl)c(Cl)c3)CCN(S(=O)(=O)c3ccccc3)CC1)CC2` to `O=C1NCN(c2ccccc2)C12CCN(CCOC1(c3ccc(Cl)c(Cl)c3)CCN(S(=O)(=O)c3ccccc3)C1)CC2` (stereo not given), the IC50 rises from 2400 nM to 20400 nM (8.5-fold). The first is the more potent here.

First: O=C1CC(CCCN2CCC3(CC2)C(=O)NCN3c2ccccc2)(c2ccc(Cl)c(Cl)c2)CN1Cc1ccccc1 (stereo not given)
Second: O=C1CC(CCN2CCC3(CC2)C(=O)NCN3c2ccccc2)(c2ccc(Cl)c(Cl)c2)CN1Cc1ccccc1 (stereo not given)
The IC50 of the first is 9.1-fold lower: 1020 nM for the first, 9330 nM for the second.

Compared with `NC(=O)C1(Nc2ccccc2)CCN(CCCC2(c3ccc(Cl)c(Cl)c3)CCCN(C(=O)c3ccccc3)C2)CC1` (stereo not given), `O=C(c1ccccc1)N1CCCC(CCCN2CCC3(CC2)C(=O)NCN3c2ccccc2)(c2ccc(Cl)c(Cl)c2)C1` (stereo not given) is lower in IC50: over 31600 nM for the first, 447 nM for the second.

Compared with `CC(C)(C)OC(=O)N1CCC(CCN2CCC3(CC2)C(=O)NCN3c2ccccc2)(c2ccccc2)CC1`, `CC(C)(C)OC(=O)N1CCC(CCCN2CCC3(CC2)C(=O)NCN3c2ccccc2)(c2ccccc2)CC1` is 1.9-fold higher in IC50: 4570 nM for the first, 8510 nM for the second. The first is the more potent here.

Compared with `CC(C)(C)OC(=O)N1CCC(CCCN2CCC(n3c(=O)[nH]c4ccccc43)CC2)(c2ccc(Cl)c(Cl)c2)CC1`, `CC(C)(C)OC(=O)N1CCC(CCCN2CCC(n3c(=O)[nH]c4ccccc43)CC2)(c2ccccc2)CC1` is 2-fold lower in IC50: 7940 nM for the first, 3980 nM for the second. The second is the more potent here.

Going from `O=C(c1ccco1)N1CCC(CCCN2CCC3(CC2)C(=O)NCN3C2CCCCC2)(c2ccc(Cl)c(Cl)c2)C1` (stereo not given) to `O=C(c1ccco1)N1CCC(CCN2CCC3(CC2)C(=O)NCN3c2ccccc2)(c2ccc(Cl)c(Cl)c2)C1` (stereo not given), the IC50 falls from over 31600 nM to 1480 nM. The second is the more potent here.

Going from `O=C1NCN(c2ccccc2)C12CCN(CCCC1(c3ccc(Cl)c(Cl)c3)CCN(Cc3ccco3)C1)CC2` (stereo not given) to `O=C1CCC(CCCN2CCC3(CC2)C(=O)NCN3c2ccccc2)(c2ccc(Cl)c(Cl)c2)CN1Cc1ccccc1` (stereo not given), the IC50 falls from 5250 nM to 1000 nM (5.2-fold). The second is the more potent here.

First: O=C(c1ccco1)N1CCC(CCN2CCC3(CC2)C(=O)NCN3c2ccccc2)(c2ccccc2)C1 (stereo not given)
Second: O=C(c1ccco1)N1CCC(OCCN2CCC3(CC2)C(=O)NCN3c2ccccc2)(c2ccc(Cl)c(Cl)c2)C1 (stereo not given)
The IC50 of the first is 2.3-fold higher: 9330 nM for the first, 3980 nM for the second.

`O=C(c1ccco1)N1CCC(OCCN2CCC3(CC2)C(=O)NCN3c2ccccc2)(c2ccc(Cl)c(Cl)c2)CC1` and `O=C(C1CCCC1)N1CCC(OCCN2CCC3(CC2)C(=O)NCN3c2ccccc2)(c2ccc(Cl)c(Cl)c2)C1` (stereo not given) are within 1.5-fold of each other in IC50: 3470 nM for the first, 4790 nM for the second.

Compared with `O=C1NCN(c2ccccc2)C12CCN(CCCC1(c3ccc(Cl)c(Cl)c3)CN(S(=O)(=O)c3ccccc3)C1)CC2`, `O=C(c1ccco1)N1CCC(CCCN2CCC3(CC2)C(=O)NC(=O)N3c2ccccc2)(c2ccc(Cl)c(Cl)c2)C1` (stereo not given) is higher in IC50: 9120 nM for the first, over 31600 nM for the second.

species: Rattus norvegicus; experiment: not given; settings: not given

`Cc1nc2ccccc2n1[C@H]1C[C@H]2CC[C@@H](C1)N2CCC1(c2cccc(Cl)c2)CCN(C(=O)C(C)(C)C)CC1` showed an LBF of 38%.
